Source: patent US10034886B2, “GLP-1 receptor modulators” (Celgene International II SÀRL, priority 2014, dated 2018)

The compounds below were run against T1, GLP-1R (Homo sapiens, UniProt P43220) (assay: EC20 GLP-1(9-36) PAM cAMP assay: dose response of compound in the presence of fixed concentration of GLP-1(9-36)). Settings: dose response of compound in presence of fixed concentration of GLP-1(9-36), GLP-1R CRE-bla CHO-K1 cells, read-out: EC20 GLP-1(9-36) PAM EC50.
T1 construct: host or cells: GLP-1R CRE-bla CHO-K1 cells
Type: cell-based
Summary of the method: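 Positive allosteric modulation read as cAMP accumulation: compound titrations (12 points) combined with an EC20 level of GLP-1(9-36) on CHO-K1 GLP-1R CRE-bla cells, IBMX present, 30 min, 37 °C, pH 7.4 buffer. Luminescence converted to cAMP via standards; non-linear fit gave EC50 and Emax.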

T1 sequence (P43220 24-463): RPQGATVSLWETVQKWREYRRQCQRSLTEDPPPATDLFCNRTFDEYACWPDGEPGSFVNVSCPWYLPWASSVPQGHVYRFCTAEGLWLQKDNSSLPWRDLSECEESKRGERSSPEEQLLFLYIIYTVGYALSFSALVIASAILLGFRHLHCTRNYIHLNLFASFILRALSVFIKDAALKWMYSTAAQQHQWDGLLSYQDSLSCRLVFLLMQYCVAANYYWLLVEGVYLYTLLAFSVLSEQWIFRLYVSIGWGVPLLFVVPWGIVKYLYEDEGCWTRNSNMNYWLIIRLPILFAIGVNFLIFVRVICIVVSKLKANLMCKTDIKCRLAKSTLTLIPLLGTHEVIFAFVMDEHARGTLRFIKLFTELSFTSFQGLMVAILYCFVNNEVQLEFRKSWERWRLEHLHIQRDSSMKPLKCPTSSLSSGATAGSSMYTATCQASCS
T1 sequence (P01275 100-127 partner limits assumed): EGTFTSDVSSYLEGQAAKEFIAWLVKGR

EC50 [µM]	Structure (SMILES)
2.5 to 5	CCCCCCCOc1ccc(-c2cnc(-c3ccc(C[C@H](NC(=O)c4cc5cc(OC)ccc5[nH]4)C(=O)N[C@H](C)C(=O)O)cc3)nc2)cc1 [Compound 990]
0.8 to 2.5	CCCCCCCOc1ccc(-c2cnc(-c3ccc(C[C@H](NC(=O)c4ccc(C(C)(C)C)s4)C(=O)N4CCC(CCC(=O)O)C4)cc3)nc2)cc1 (stereo partly drawn) [Compound 991]
2.5 to 5	CCOc1ccc2cc(-c3cnc(-c4ccc(C[C@H](NC(=O)c5ccc(C(C)(C)C)s5)C(=O)N[C@H](C)C(=O)O)cc4)nc3)ccc2c1 [Compound 992]
2.5 to 5	C[C@@H](NC(=O)[C@H](Cc1ccc(-c2ncc(-c3ccc(C(=O)c4ccccc4)cc3)cn2)cc1)NC(=O)c1ccc(C(C)(C)C)s1)C(=O)O [Compound 993]
0.8 to 2.5	C[C@@H](NC(=O)[C@H](Cc1ccc(-c2ncc(-c3ccc(OCc4ccccc4)c(F)c3)cn2)cc1)NC(=O)c1ccc(C(C)(C)C)s1)C(=O)O [Compound 994]
5 to 10	CSc1cccc(-c2cnc(-c3ccc(C[C@H](NC(=O)c4ccc(C(C)(C)C)s4)C(=O)N[C@H](C)C(=O)O)cc3)nc2)c1 [Compound 995]
0.8 to 2.5	Cc1cccc(NC(=O)c2cccc(-c3cnc(-c4ccc(C[C@H](NC(=O)c5ccc(C(C)(C)C)s5)C(=O)N[C@H](C)C(=O)O)cc4)nc3)c2)c1C [Compound 996]
5 to 10	COc1ccc2cc(-c3cnc(-c4ccc(C[C@H](NC(=O)c5ccc(C(C)(C)C)s5)C(=O)N[C@H](C)C(=O)O)cc4)nc3)ccc2c1 [Compound 997]
2.5 to 5	CCSc1ccc(-c2cnc(-c3ccc(C[C@H](NC(=O)c4ccc(C(C)(C)C)s4)C(=O)N[C@H](C)C(=O)O)cc3)nc2)cc1 [Compound 998]
2.5 to 5	COc1cc(-c2cnc(-c3ccc(C[C@H](NC(=O)c4ccc(C(C)(C)C)s4)C(=O)N[C@H](C)C(=O)O)cc3)nc2)ccc1OCc1ccccc1 [Compound 999]
5 to 10	C[C@@H](NC(=O)[C@H](Cc1ccc(-c2ncc(-c3ccc(Oc4ccccc4)cc3)cn2)cc1)NC(=O)c1ccc(C(C)(C)C)s1)C(=O)O [Compound 1000]
2.5 to 5	C[C@@H](NC(=O)[C@H](Cc1ccc(-c2ncc(-c3ccc(OCc4ccccc4)c(Cl)c3)cn2)cc1)NC(=O)c1ccc(C(C)(C)C)s1)C(=O)O [Compound 1001]
0.8 to 2.5	COc1ccc(-c2ccc(-c3cnc(-c4ccc(C[C@H](NC(=O)c5ccc(C(C)(C)C)s5)C(=O)N[C@H](C)C(=O)O)cc4)nc3)cc2)cc1 [Compound 1002]
5 to 10	COc1ccc(-c2cnc(-c3ccc(C[C@H](NC(=O)c4ccc(C(C)(C)C)s4)C(=O)N[C@H](C)C(=O)O)cc3)nc2)c(F)c1OCC(C)C [Compound 1003]
0.8 to 2.5	CCOc1cc(-c2cnc(-c3ccc(C[C@H](NC(=O)c4ccc(C(C)(C)C)s4)C(=O)N[C@H](C)C(=O)O)cc3)nc2)ccc1OC(F)(F)F [Compound 1004]
0.8 to 2.5	CCCOc1ccc(-c2cnc(-c3ccc(C[C@H](NC(=O)c4ccc(C(C)(C)C)s4)C(=O)N[C@H](C)C(=O)O)cc3)nc2)cc1C [Compound 1005]
0.8 to 2.5	Cc1cc(C)n(-c2ccc(-c3cnc(-c4ccc(C[C@H](NC(=O)c5ccc(C(C)(C)C)s5)C(=O)N[C@H](C)C(=O)O)cc4)nc3)cc2)n1 [Compound 1006]
0.8 to 2.5	Cc1cc(-c2cnc(-c3ccc(C[C@H](NC(=O)c4ccc(C(C)(C)C)s4)C(=O)N[C@H](C)C(=O)O)cc3)nc2)ccc1OC(C)C [Compound 1007]
5 to 10	C[C@@H](NC(=O)[C@H](Cc1ccc(-c2ncc(-c3cc4ccccc4cc3O)cn2)cc1)NC(=O)c1ccc(C(C)(C)C)s1)C(=O)O [Compound 1008]
2.5 to 5	C[C@@H](NC(=O)[C@H](Cc1ccc(-c2ncc(-c3ccc(Oc4ccccc4F)nc3)cn2)cc1)NC(=O)c1ccc(C(C)(C)C)s1)C(=O)O [Compound 1009]

EC50 [µM]	Structure (SMILES)
2.5 to 5	C[C@@H](NC(=O)[C@H](Cc1ccc(-c2ncc(-c3ccc4c(ccn4S(=O)(=O)c4ccccc4)c3)cn2)cc1)NC(=O)c1ccc(C(C)(C)C)s1)C(=O)O [Compound 1010]
2.5 to 5	CC(C)COc1cc(-c2cnc(-c3ccc(C[C@H](NC(=O)c4ccc(C(C)(C)C)s4)C(=O)N[C@H](C)C(=O)O)cc3)nc2)cc(Cl)c1F [Compound 1011]
2.5 to 5	COc1ccccc1-c1ccc(-c2cnc(-c3ccc(C[C@H](NC(=O)c4ccc(C(C)(C)C)s4)C(=O)N[C@H](C)C(=O)O)cc3)nc2)cc1 [Compound 1012]
5 to 10	CC(C)Oc1cc(-c2cnc(-c3ccc(C[C@H](NC(=O)c4ccc(C(C)(C)C)s4)C(=O)N[C@H](C)C(=O)O)cc3)nc2)ccc1OC(F)(F)F [Compound 1013]
5 to 10	CCCCC(=O)c1ccc(-c2cnc(-c3ccc(C[C@H](NC(=O)c4ccc(C(C)(C)C)s4)C(=O)N[C@H](C)C(=O)O)cc3)nc2)c(C)c1 [Compound 1014]
0.8 to 2.5	C[C@@H](NC(=O)[C@H](Cc1ccc(-c2ncc(-c3ccc(N(c4ccccc4)c4ccccc4)cc3)cn2)cc1)NC(=O)c1ccc(C(C)(C)C)s1)C(=O)O [Compound 1015]
5 to 10	Cc1cccc(Oc2ccc(-c3cnc(-c4ccc(C[C@H](NC(=O)c5ccc(C(C)(C)C)s5)C(=O)N[C@H](C)C(=O)O)cc4)nc3)cn2)c1 [Compound 1016]
2.5 to 5	CC(C)Oc1cc(-c2cnc(-c3ccc(C[C@H](NC(=O)c4ccc(C(C)(C)C)s4)C(=O)N[C@H](C)C(=O)O)cc3)nc2)cc(Cl)c1OC(C)C [Compound 1017]
5 to 10	C[C@@H](NC(=O)[C@H](Cc1ccc(-c2ncc(-c3ccc(C(C)(C)C#N)cc3F)cn2)cc1)NC(=O)c1ccc(C(C)(C)C)s1)C(=O)O [Compound 1018]
2.5 to 5	COc1ccc(-c2cnc(-c3ccc(C[C@H](NC(=O)c4ccc(C(C)(C)C)s4)C(=O)N[C@H](C)C(=O)O)cc3)nc2)c(F)c1OC1CCCC1 [Compound 1019]
5 to 10	C[C@@H](NC(=O)[C@H](Cc1ccc(-c2ncc(-c3cc(O)cc(OC(F)(F)F)c3)cn2)cc1)NC(=O)c1ccc(C(C)(C)C)s1)C(=O)O [Compound 1020]
2.5 to 5	CC(C)Cc1ccc(-c2cnc(-c3ccc(C[C@H](NC(=O)c4ccc(C(C)(C)C)s4)C(=O)N[C@H](C)C(=O)O)cc3)nc2)cc1 [Compound 1021]
2.5 to 5	CCCCOc1c(OC)ccc(-c2cnc(-c3ccc(C[C@H](NC(=O)c4ccc(C(C)(C)C)s4)C(=O)N[C@H](C)C(=O)O)cc3)nc2)c1F [Compound 1022]
2.5 to 5	Cc1ccccc1-c1ccc(-c2cnc(-c3ccc(C[C@H](NC(=O)c4ccc(C(C)(C)C)s4)C(=O)N[C@H](C)C(=O)O)cc3)nc2)cc1 [Compound 1023]
0.8 to 2.5	C[C@@H](NC(=O)[C@H](Cc1ccc(-c2ncc(-c3cc4ccccc4s3)cn2)cc1)NC(=O)c1ccc(C(C)(C)C)s1)C(=O)O [Compound 1024]
2.5 to 5	C[C@@H](NC(=O)[C@H](Cc1ccc(-c2ncc(-c3cc(OC(F)(F)F)ccc3F)cn2)cc1)NC(=O)c1ccc(C(C)(C)C)s1)C(=O)O [Compound 1026]
5 to 10	C[C@@H](NC(=O)[C@H](Cc1ccc(-c2ncc(-c3ccc(OC(F)(F)F)c(OCC4CC4)c3)cn2)cc1)NC(=O)c1ccc(C(C)(C)C)s1)C(=O)O [Compound 1027]
2.5 to 5	CC(C)N(C(=O)c1ccc(-c2cnc(-c3ccc(C[C@H](NC(=O)c4ccc(C(C)(C)C)s4)C(=O)N[C@H](C)C(=O)O)cc3)nc2)cc1)C(C)C [Compound 1028]
2.5 to 5	C[C@@H](NC(=O)[C@H](Cc1ccc(-c2ncc(-c3ccc(Cl)cc3)cn2)cc1)NC(=O)c1ccc(C(C)(C)C)s1)C(=O)O [Compound 1029]
